Experimental findings from patent publication US20230236206A1, “PREDICTING A SEPSIS CONDITION” (PHARM-ANALYT LABOR GMBH, priority 2020, published 2023) are described below.

The nature of this data set: Hydrophilicity of BM1. Type of data set: physicochemical.

With `C[C@@H](O)[C@H](NC(=O)Nc1ncnc2c1ncn2[C@@H]1O[C@H](CO)C(O)C1O)C(=O)O` (stereo partly drawn) [BM1, N6-Carbamoylthreonyl-D-adenosine], the Hydrophilicity entry is reported as “very hydrophilic”.
